Test results as given in article PMC12298351, “Novel 3,19-(N-Phenyl-3-(4-fluorophenyl)-pyrazole) Acetal of Andrographolide Promotes Cell Cycle Arrest and Apoptosis in MDA-MB-231 Breast Cancer Cells” (Pharmaceuticals, 2025).

Key:
MDA-MB-435 = details: MDA-MB-435, Melanoma; for CC50: read-out: 50% lethal concentration (LC50)
BT-549 = assay type: cell-based; details: BT-549, Breast
HCC-2998 = details: HCC-2998, Colon
T-47D = details: for GI50 / Total growth inhibition (TGI): Breast; for CC50: read-out: 50% lethal concentration (LC50), Breast
HOP-92 = details: for Total growth inhibition (TGI) / CC50: HOP-92, Non-Small Cell Lung; for GI50: HOP-92, Non-Small-Cell Lung; for CC50: read-out: 50% lethal concentration (LC50)
PC-3 = details: PC-3, Prostate; for CC50: read-out: 50% lethal concentration (LC50)
SNB-19 = assay type: cell-based; details: SNB-19, CNS
OVCAR-4 = assay type: cell-based; details: OVCAR-4, Ovarian; for CC50: read-out: 50% lethal concentration (LC50)
SNB-75 = details: SNB-75, CNS; for CC50: read-out: 50% lethal concentration (LC50)
SK-MEL-5 = details: SK-MEL-5, Melanoma; for CC50: read-out: 50% lethal concentration (LC50)
SF-539 = details: SF-539, CNS; for CC50: read-out: 50% lethal concentration (LC50)
HT29 = details: HT29, Colon; for CC50: read-out: 50% lethal concentration (LC50)
MOLT-4 = details: MOLT-4, Leukemia; for CC50: read-out: 50% lethal concentration (LC50)
MALME-3M = details: Melanoma
SK-MEL-2 = details: SK-MEL-2, Melanoma
786-0 = details: 786-0, Renal; for CC50: read-out: 50% lethal concentration (LC50)
COLO 205 = details: COLO 205, Colon
HS 578T = details: for GI50 / Total growth inhibition (TGI): Breast; for CC50: read-out: 50% lethal concentration (LC50), Breast
OVCAR-5 = details: OVCAR-5, Ovarian; for CC50: read-out: 50% lethal concentration (LC50)
SF-295 = details: SF-295, CNS; for CC50: read-out: 50% lethal concentration (LC50)
NCI-H226 = details: for Total growth inhibition (TGI) / CC50: NCI-H226, Non-Small Cell Lung; for GI50: NCI-H226, Non-Small-Cell Lung; for CC50: read-out: 50% lethal concentration (LC50)
[1] = DPPH radical scavenging assay; details: 25 µM test compound, 0.1 mM DPPH, acetonitrile, 30 min
Procedure, shortened: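 Compounds at 25 µM in acetonitrile mixed 1:2 with 0.1 mM DPPH in acetonitrile, kept 30 min in the dark at room temperature. Absorbance read at 517 nm; % scavenging = (Ac − As)/Ac × 100, Ac being DPPH blank. Ascorbic acid positive control.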

HL-60(TB) = details: for GI50 / Total growth inhibition (TGI): Leukemia; for CC50: read-out: 50% lethal concentration (LC50), Leukemia
NCI-H522 = details: for Total growth inhibition (TGI) / CC50: NCI-H522, Non-Small Cell Lung; for GI50: NCI-H522, Non-Small-Cell Lung; for CC50: read-out: 50% lethal concentration (LC50)
HCT-15 = details: HCT-15, Colon; for CC50: read-out: 50% lethal concentration (LC50)
HCT-116 = assay type: cell-based; details: HCT-116, Colon
NCI-H23 = details: for Total growth inhibition (TGI) / CC50: NCI-H23, Non-Small Cell Lung; for GI50: NCI-H23, Non-Small-Cell Lung; for CC50: read-out: 50% lethal concentration (LC50)
MDA-MB-231 = details: for GI50: MDA-MB-231, Breast; for Total growth inhibition (TGI) / CC50: MDA-MB-231/ATCC, Breast; for CC50: read-out: 50% lethal concentration (LC50)

Structure (SMILES): C=C1CCC2C3(C)COC(c4cn(-c5ccccc5)nc4-c4cccc(F)c4)OC3CCC2(C)C1CC=C1C(=O)OCC1O (stereo not drawn) [1c]
- GI50 (MDA-MB-435): 1.5 µM
- Total growth inhibition (TGI) (MDA-MB-435): 3.08 µM
- CC50 (MDA-MB-435): 6.32 µM
- GI50 (BT-549): 1.3 µM
- Total growth inhibition (TGI) (BT-549): 3.01 µM
- GI50 (HCC-2998): 1.73 µM
- Total growth inhibition (TGI) (HCC-2998): 3.2 µM
- GI50 (T-47D): 1.39 µM
- Total growth inhibition (TGI) (T-47D): 4.07 µM
- CC50 (T-47D): > 100 µM
- Total growth inhibition (TGI) (HOP-92): 3.03 µM
- GI50 (HOP-92): 1.53 µM
- CC50 (HOP-92): 6.02 µM
- GI50 (PC-3): 1.97 µM
- Total growth inhibition (TGI) (PC-3): 4.56 µM
- CC50 (PC-3): > 100 µM
- Total growth inhibition (TGI) (SNB-19): 2.72 µM
- GI50 (OVCAR-4): 1.74 µM
- Total growth inhibition (TGI) (OVCAR-4): 4.27 µM
- CC50 (OVCAR-4): > 100 µM
- Total growth inhibition (TGI) (SNB-75): 3.55 µM
- CC50 (SNB-75): 5.82 µM
- GI50 (SK-MEL-5): 1.65 µM
- Total growth inhibition (TGI) (SK-MEL-5): 3.02 µM
- CC50 (SK-MEL-5): 5.51 µM
- GI50 (SF-539): 1.77 µM
- Total growth inhibition (TGI) (SF-539): 3.17 µM
- CC50 (SF-539): 5.68 µM
- GI50 (HT29): 1.7 µM
- Total growth inhibition (TGI) (HT29): 4.51 µM
- CC50 (HT29): > 100 µM
- GI50 (MOLT-4): 0.69 µM
- CC50 (MOLT-4): > 100 µM
- GI50 (MALME-3M): 1.87 µM
- Total growth inhibition (TGI) (MALME-3M): 3.5 µM
- GI50 (SK-MEL-2): 1.79 µM
- Total growth inhibition (TGI) (SK-MEL-2): 3.29 µM
- GI50 (786-0): 1.78 µM
- Total growth inhibition (TGI) (786-0): 3.59 µM
- CC50 (786-0): 7.24 µM
- GI50 (COLO 205): 2.06 µM
- Total growth inhibition (TGI) (COLO 205): 4.65 µM
- GI50 (HS 578T): 1.66 µM
- Total growth inhibition (TGI) (HS 578T): 3.18 µM
- CC50 (HS 578T): 6.12 µM
- GI50 (OVCAR-5): 1.92 µM
- Total growth inhibition (TGI) (OVCAR-5): 4.61 µM
- CC50 (OVCAR-5): 31 µM
- GI50 (SF-295): 1.52 µM
- Total growth inhibition (TGI) (SF-295): 2.88 µM
- CC50 (SF-295): 5.49 µM
- Total growth inhibition (TGI) (NCI-H226): 3.19 µM
- GI50 (NCI-H226): 1.67 µM
- CC50 (NCI-H226): 6.08 µM
- % DPPH radical scavenging activity [1]: 58.33%
- GI50 (HL-60(TB)): 0.76 µM
- Total growth inhibition (TGI) (HL-60(TB)): > 100 µM
- CC50 (HL-60(TB)): > 100 µM
- Total growth inhibition (TGI) (NCI-H522): 3.08 µM
- GI50 (NCI-H522): 1.52 µM
- CC50 (NCI-H522): 6.24 µM
- GI50 (HCT-15): 1.57 µM
- Total growth inhibition (TGI) (HCT-15): 3.18 µM
- CC50 (HCT-15): 6.45 µM
- GI50 (HCT-116): 3.48 µM
- Total growth inhibition (TGI) (HCT-116): 1.59 µM
- Total growth inhibition (TGI) (NCI-H23): 3.57 µM
- GI50 (NCI-H23): 1.79 µM
- CC50 (NCI-H23): 7.09 µM
- GI50 (MDA-MB-231): 1.72 µM
- Total growth inhibition (TGI) (MDA-MB-231): 3.29 µM
- CC50 (MDA-MB-231): 6.28 µM

Structure (SMILES): C=C1CCC2C3(C)COC(c4cn(-c5ccccc5)nc4-c4ccc(OC)cc4)OC3CCC2(C)C1CC=C1C(=O)OCC1O (stereo not drawn) [1j]
- GI50 (MDA-MB-435): 1.54 µM
- Total growth inhibition (TGI) (MDA-MB-435): 3.17 µM
- CC50 (MDA-MB-435): 6.51 µM
- GI50 (BT-549): 1.65 µM
- Total growth inhibition (TGI) (BT-549): 3.23 µM
- GI50 (HCC-2998): 1.7 µM
- Total growth inhibition (TGI) (HCC-2998): 3.19 µM
- GI50 (T-47D): 1.8 µM
- Total growth inhibition (TGI) (T-47D): 5.02 µM
- CC50 (T-47D): > 100 µM
- Total growth inhibition (TGI) (HOP-92): 3.02 µM
- GI50 (HOP-92): 1.47 µM
- CC50 (HOP-92): 6.2 µM
- GI50 (PC-3): 2.18 µM
- CC50 (PC-3): > 100 µM
- GI50 (SNB-19): 2.46 µM
- Total growth inhibition (TGI) (SNB-19): 7.42 µM
- CC50 (SNB-19; read-out: 50% lethal concentration (LC50)): 34.6 µM
- GI50 (OVCAR-4): 1.72 µM
- Total growth inhibition (TGI) (OVCAR-4): 4.23 µM
- CC50 (OVCAR-4): > 100 µM
- GI50 (SNB-75): 1.15 µM
- Total growth inhibition (TGI) (SNB-75): 5.09 µM
- CC50 (SNB-75): 24.4 µM
- GI50 (SK-MEL-5): 1.54 µM
- Total growth inhibition (TGI) (SK-MEL-5): 2.89 µM
- CC50 (SK-MEL-5): 5.41 µM
- GI50 (SF-539): 1.69 µM
- Total growth inhibition (TGI) (SF-539): 3.1 µM
- CC50 (SF-539): 5.7 µM
- GI50 (HT29): 1.7 µM
- Total growth inhibition (TGI) (HT29): 3.38 µM
- CC50 (HT29): 6.73 µM
- GI50 (MOLT-4): 1.71 µM
- Total growth inhibition (TGI) (MOLT-4): 7.57 µM
- CC50 (MOLT-4): > 100 µM
- GI50 (MALME-3M): 1.54 µM
- Total growth inhibition (TGI) (MALME-3M): 2.93 µM
- GI50 (SK-MEL-2): 1.57 µM
- Total growth inhibition (TGI) (SK-MEL-2): 3.08 µM
- GI50 (786-0): 2.3 µM
- Total growth inhibition (TGI) (786-0): 5.59 µM
- CC50 (786-0): > 100 µM
- GI50 (COLO 205): 1.95 µM
- Total growth inhibition (TGI) (COLO 205): 4.24 µM
- GI50 (HS 578T): 1.86 µM
- Total growth inhibition (TGI) (HS 578T): 4.88 µM
- CC50 (HS 578T): > 100 µM
- GI50 (OVCAR-5): 1.86 µM
- Total growth inhibition (TGI) (OVCAR-5): 4.21 µM
- CC50 (OVCAR-5): 9.52 µM
- GI50 (SF-295): 1.43 µM
- Total growth inhibition (TGI) (SF-295): 2.78 µM
- CC50 (SF-295): 5.39 µM
- Total growth inhibition (TGI) (NCI-H226): 3.36 µM
- GI50 (NCI-H226): 1.72 µM
- CC50 (NCI-H226): 6.55 µM
- % DPPH radical scavenging activity [1]: 59.2%
- GI50 (HL-60(TB)): 1.08 µM
- Total growth inhibition (TGI) (HL-60(TB)): 3.96 µM
- CC50 (HL-60(TB)): > 100 µM
- Total growth inhibition (TGI) (NCI-H522): 3.24 µM
- GI50 (NCI-H522): 1.73 µM
- CC50 (NCI-H522): 6.06 µM
- GI50 (HCT-15): 1.58 µM
- Total growth inhibition (TGI) (HCT-15): 3.37 µM
- CC50 (HCT-15): 7.2 µM
- GI50 (HCT-116): 1.4 µM
- Total growth inhibition (TGI) (HCT-116): 3.11 µM
- Total growth inhibition (TGI) (NCI-H23): 3.74 µM
- GI50 (NCI-H23): 1.71 µM
- CC50 (NCI-H23): 8.2 µM
- GI50 (MDA-MB-231): 1.47 µM
- Total growth inhibition (TGI) (MDA-MB-231): 2.98 µM
- CC50 (MDA-MB-231): 60.1 µM
